As a reminder, the EC50 is the concentration needed to bring the measured effect to its halfway point. Read a high EC50 as weaker potency.

The target of this test is ER-alpha (WT) (Homo sapiens (Human), UniProt P03372). The test is described as follows: Breast Cancer Cell ERa High Content Fluorescence Imaging Degradation Assay (ER-alpha MCF7 HCS). The class given is cell-based. The following applies: MCF7 breast cancer cells. The method, then:
Example 901: Breast Cancer Cell ERa High Content Fluorescence Imaging Degradation Assay
MCF7 breast cancer cells were seeded on day 1 at a density of 10,000 cells per well in 384 well poly-lysine coated tissue culture plate (Greiner # T-3101-4), in 50 µL/well RPMI (phenol red free), 10% FBS (Charcoal stripped), containing L-glutamine. […] Compounds and controls were dispensed using a Labcyte Echo acoustic dispenser to dispense compounds with a pre-defined serial dilution (1.8×, 10 point, in duplicate) and appropriate backfill and control compounds (final total volume transferred was 417.5 nL and compound dispense volume ranges from 2.5 nL to 417.5 nL; 0.84% DMSO (v/v) final), ultimately producing a concentration range from 0.05 nM to 835 nM. Cell plates were incubated at 37° C., for 4 hours. Fixation and permeabilization were carried out using a Biotek EL406 plate washer and dispenser as follows. Cells were fixed by addition of 15 μL of 16% paraformaldehyde (Electron Microscopy Sciences #15710-S) directly to the 50 μL cell culture medium in each well using the peristaltic pump 5 μL cassette on a Biotek EL406 (final concentration of formaldehyde was 3.7% w/v). Samples were incubated 30 minutes. Well contents was aspirated and 50 μL/well of Phosphate Buffered Saline (PBS) containing 0.5% w/v bovine serum albumen, 0.5% v/v Triton X-100 (Antibody Dilution Buffer) was added to each well. Samples were incubated for 30 minutes. Well contents were aspirated and washed 3 times with 100 μL/well of PBS. Immunofluorescence staining of estrogen receptor alpha (ESR1) was carried out using a Biotek EL406 plate washer and dispenser as follows. The well supernatant was aspirated from the wells and 25 μL/well of anti-ESR1 mAb (F10) (Santa Cruz sc-8002) diluted 1:1000 in Antibody Dilution Buffer was dispensed. Samples were incubated for 2 hours at room temperature. Samples were washed 4 times with 100 μL/well of PBS. 25 μL (microliters)/well of secondary antibody solution (Alexafluor® 488 conjugate anti-mouse IgG (LifeTechnologies #A21202) diluted 1:1000 and Hoechst 33342 1 μg/ml diluted in Antibody Dilution Buffer) were dispensed into each well. Samples were incubated for 2 hours at room temperature. Samples were washed 3 times with 100 μL/well of PBS using a Biotek EL406. Quantitative fluorescence imaging of ESR1 was carried out using a Cellomics Arrayscan V® (Thermo). Fluorescence images of the samples (Channel 1: XF53 Hoechst (DNA stain); Channel 2: XF53 FITC (ESR1 stain)) were acquired using a Cellomics VTI Arrayscan using the Bioapplication “Compartmental Analysis” using the auto-exposure (based on DMSO control wells) setting “peak target percentile” set to 25% target saturation for both channels. Channel 1 (DNA stain) was used to define the nuclear region (Circ). Measurements of “Mean_CircAvgIntCh2”, which is the Alexafluor 488 fluorescence intensity (ESR1) within the nuclear region, was measured on a per cell basis and averaged over all the measured cells. Data analysis was carried out using Genedata Screener Software, with DMSO and 5 nM Fulvestrant treated samples being used to define the 0% and 100% changes in ESR1. The “Robust Fit” method was used to define the inflexion point of curve (EC50) and the plateau of the maximal effect (Sinf).

Sequence of ER-alpha (WT) (P03372 whole entry): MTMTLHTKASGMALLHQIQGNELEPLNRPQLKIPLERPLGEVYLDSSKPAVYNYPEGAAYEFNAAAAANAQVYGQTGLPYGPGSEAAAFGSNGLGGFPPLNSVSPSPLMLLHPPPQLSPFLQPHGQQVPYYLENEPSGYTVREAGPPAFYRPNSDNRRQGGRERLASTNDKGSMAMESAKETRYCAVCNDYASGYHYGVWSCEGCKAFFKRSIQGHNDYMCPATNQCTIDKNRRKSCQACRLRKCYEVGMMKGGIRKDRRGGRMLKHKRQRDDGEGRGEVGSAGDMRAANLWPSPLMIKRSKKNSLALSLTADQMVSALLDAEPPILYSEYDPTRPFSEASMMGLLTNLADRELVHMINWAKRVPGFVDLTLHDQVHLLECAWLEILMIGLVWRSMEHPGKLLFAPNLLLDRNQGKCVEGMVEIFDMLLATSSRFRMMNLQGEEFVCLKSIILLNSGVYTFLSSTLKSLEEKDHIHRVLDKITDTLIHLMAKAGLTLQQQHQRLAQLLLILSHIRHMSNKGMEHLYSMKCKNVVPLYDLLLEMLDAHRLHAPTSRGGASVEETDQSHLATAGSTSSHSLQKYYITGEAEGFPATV

In the case of `Oc1ccc2c(c1)CC[C@H](c1ccccc1)[C@@H]2c1ccc(NCCN2CC[C@@H](CF)C2)cc1` [Compound 139, (5R,6S)-5-(4-((2-((R)-3-(fluoromethyl)pyrrolidin-1-yl)ethyl)amino)phenyl)-6-phenyl-5,6,7,8-tetrahydronaphthalen-2-ol], a half-maximal response (4 hours incubation, inflexion point of curve) (EC50) required 228 nM. Further, for the setting “plateau of the maximal effect (ERa degradation), DMSO and 5 nM Fulvestrant define 0% and 100% changes in ESR1”, the “ER-alpha (WT) MCF7 HCS (S inf)” value is −50%.

(Values after US10399939B2, “Tetrahydronaphthalene estrogen receptor modulators and uses thereof” (Genentech, Inc., priority 2015, dated 2019).)
